For test [1], the system named is LPS induced IL-23 (p19/p40) in DC cells differentiated from human PBMC. The test can be described thus: IL23-p19 ELISA, dendritic cells (DC differentiated from human PBMC), IFNγ primed, LPS stimulated. The format is cell-based. Particulars: human PBMC-derived dendritic cells, 1 μg/ml LPS, 18 hours, 10 pt. The method, then: Compound Screening Using DC Cells
1. Differentiation of PBMC's to DC Cells:
Human PBMC cells (400 million) obtained from the vendor were transferred into a T-175 flask containing 15 ml RPMI media (10% FBS) and incubate for 2 hours at 37° C. After 2 hours, the media including floating cells was aspirated out carefully and 12 ml of fresh RPMI media (10% FBS) containing GMCSF (100 ng/ml) and IL4 (20 ng/ml) was added, and the flask was kept in a 37° C. incubator for 7 days.
After 3 days, fresh GMCSF (100 ng/ml) and IL4 (20 ng/ml) were added to the flask and the incubation continued. After 7 days, the fully differentiated cells were harvested by spinning down (1200 rpm/5 min) and aspirating the media. The cells were suspended in fresh RPMI media (10% FBS) containing 50 ng/ml IFNγ (1000 U/ml) and then plated (50K/well in 100 μl) onto a white clear bottom 96 well plate and left in a 37° C. incubator for 24 hours.
2. Addition of Compounds:
After 24 hours incubation, 100 μl of RPMI media was added containing 2× concentrated test compound per well to the above cell-culture media (final concentration becomes 1×) and the plates were pre-incubated for 1 hour at 37° C. before stimulating with LPS.
After 1 hour compound pre-incubation, 10 μl per well of 20× concentrated LPS solution in RPMI media was added to give a final concentration of 1 μg/ml. The mixture was shaken and incubated the plates at 37° C. for an additional 18 hours.
155 μl of the supernatant was harvested from each well carefully (without the tip touching the bottom of the well) and to the remaining 50 μl/well of the cell culture plate was added 50 μl of Cell Titer Glo reagent. The mixture was incubated for 1-2 minutes on a shaker and the plate was read for luminescence intensity to determine the compound cytotoxicity. The cell culture supernatant collected above was used to carry out IL23 ELISA (65 μl-Supernatant) and IL10 ELISA (90 μl-Supernatant) as described below.
Human IL-23 (p19/p40) ELISA Protocol (e-Biosciences)
To 10.5 ml PBS add 50 μl of anti-IL23 (p19) was added capture antibody (2.5 μg/ml). The mixture was mixed well and 100 μl of the coating solution was added to each well of the 96 well white plates from Pierce. The wells were covered and incubated overnight at 4° C.
The anti-IL23 (p19)-antibody-coated plates were washed 2× using TBST (use plate washer) and blocked using 200 μl of 0.5% Casein for 1.5-2 hours at room temperature with shaking.
The plates were washed 2× using TBST and the supernatant was transferred (65 μl/well) to the above pre-blocked/IL23 (p19)-antibody-coated 96 well plate, and incubated at room temperature for 1.5 hours with shaking.
The plates were washed 4× using TBST (plate washer) and 100 μl/well detection antibody solution prepared from 2 μl of biotin labeled anti-IL-12 (p40/p70) antibody in 11 ml 1% BSA/PBS solution (1-5000 dilution) was added. The plates were incubated for 1 hour with shaking at room temperature.
Again, the plates were washed 4× with TBST and 100 μl of HRP labeled Streptavidin (R&D Systems) solution (10 μl/10 ml 1% BSA solution) was added, and the plates were incubated at room temperature for another 45 minutes with shaking.
After 45 minutes, the plates were washed with TBST 4× and 100 ul/well Super Signal ELISA Pico Chemiluminescent Substrate from Pierce (3.5 ml A+3.5 ml B+3.5 ml MQ water) was added. The plates were shaken for 1-2 minutes then read on a plate reader.
On the technique in general: An ELISA detects its analyte on a solid surface through an enzyme-linked reagent.

The test system of test [2] is LPS induced IL23p19 in THP-1 cells. The test can be described thus: LPS Induced IL23p19 in THP-1 Cells (with IFNγ Primed) Assay. The class given is cell-based. As to conditions: Homo sapiens; THP-1 cells primed with IFNγ 50 ng/mL, 1 μg/mL LPS, 18 hours, 10 pt; read-out: IL23-p19 ELISA, THP1-IFNy, LPS, 10 pt EC50. The text has this:
LPS Induced IL23p19 in THP-1 Cells (with IFNγ Primed) Assay
THP-1 Cells (ATCC, Cat # TIB-202), Dimethyl Sulfoxide (DMSO) (Sigma-Aldrich, Cat # D2650), RPMI 1640 (Cellgro, Cat #10-040-CM), Fetal Bovine Serum (Sigma, Cat # F4135), Albumin From Bovine Serum (BSA) (Sigma-Aldrich, Cat # A7906), LPS (Serotype K-235, Sigma, Product Number L 2143), IFNγ (Peprotech, Cat #300-02), Capture antibody: Human IL-23p19 ELISA (e-Bioscience, Cat. #14-7238-85), Detection antibody: Primary Mouse Biotinylated anti-human IL-12 (p40/p70) (e-Bioscience, Cat. #13-7129-85), Secondary HRP-conjugated Streptavidin (R&D Systems, Cat # DY998), 1×PBST Washing Buffer (PBS-Tween tablet) (VWR International, Cat #80058-558), ELISA Blocking Buffer (PBS with 1% BSA), ELISA Dilution Buffer (PBS with 1% BSA), 384 Well Flat-Bottom, MaxiSorp Black Immuno Plates (Thermo Scientific, Cat #12-565-346), 384 Well Flat-Bottom, White Tissue Culture Plates (Thermo Scientific, Cat #12-565-343), Super Signal ELISA Pico Chemiluminescent Substrate (Thermo Scientific, Cat #37070), Cell Titer Glo reagent (Promega, Cat # G7573), Positive control, IKK2VI inhibitor (Calbiochem, Cat #401483), AquaMax 4000 plate washer (Molecular Devices), Luminometer, Wallac Victor2 1420 Multilabel Counter.
On day 1, 50K/well THP-1 cells were seeded and primed with IFNγ (50 ng/mL) in 384-well plates for about 18 hours in RPMI media with 10% FBS. On day 2, the compound was serially diluted in DMSO from 5 mM in 3-fold dilutions, and then diluted 1:125 in RPMI media with 10% FBS. 50 μL/well 2× compound was added to 50 μL/well THP-1 cells (with IFNγ primed) in duplicate in 384 well tissue culture plates. The cells were pre-incubated with compound for 1 hour at 37° C., 5% CO2 before addition of 10 μL/well 11×LPS to give a final concentration of 1 μg/mL LPS. Day 3, after stimulation for 18 hours at 37° C., 5% CO2, the assay plate was centrifuged and 70 μL/well supernatant was harvested. IL-23p19 protein in 70 μL/well of supernatant was measured by sandwich ELISA, and 25 μl/well Cell Titer Glo reagent was added to the remaining cells to measure compound toxicity.
Human IL-23p19 Sandwich ELISA:
Maxisorp immuno ELISA plates were pre-coated with 25 μL/well of anti-IL-23p19 capture antibody (2.5 ug/mL) in PBS overnight at room temperature. After washing with 1×PBST, the plates were blocked using 100 μL/well of 1% BSA in PBS for 2 hours at room temperature. The plates were washed three times with 1×PBST and 70 μL/well supernatant were added. The plates were incubated at room temperature for 2 hours with shaking and washed three times with 1×PBST. 25 μL/well of biotin labeled anti-IL-12 (p40/p70) detection antibody (100 ng/mL) in PBS with 1% BSA was added and the plates were incubated at room temperature for 2 hours with shaking. After washing three times with 1×PBST, 25 μL/well of streptavidin-HRP (1:200) in PBS with 1% BSA was added and the plates were incubated at room temperature for 20 minutes with shaking. The plates were washed three times with 1×PBST and 25 μL/well of Super Signal ELISA Pico Chemiluminescent Substrate were added. The plates were read with a luminometer, and the chemiluminescence values were entered into Athena (Rigel) for curve fitting, EC50 calculation, and database storage.

In US10590121B2, “Kinase inhibitors and methods for making and using” (Rigel Pharmaceuticals, Inc., priority 2017, dated 2020) one finds EC50 data, which are given here for 16 molecules.

The EC50 is the concentration that produces a half-maximal response.

Turning to `O=C(Nc1cc(CCN2CCOCC2)c(F)cc1N1CCCCC1)c1csc(-c2cn[nH]c2)n1` [I-32, N-(4-fluoro-5-(2-morpholinoethyl)-2-(piperidin-1-yl)phenyl)-2-(1H-pyrazol-4-yl)thiazole-4-carboxamide], the EC50 in test [1] amounted to 324 nM; in test [2] it was 173 nM.

As for `O=C(Nc1cc(C(F)(F)CN2CCOCC2)ccc1N1CCCCC1)c1ccc(-c2cn[nH]c2)o1` [I-34, N-(5-(1,1-difluoro-2-morpholinoethyl)-2-(piperidin-1-yl)phenyl)-5-(1H-pyrazol-4-yl)furan-2-carboxamide], the results for the EC50 in test [1] and in test [2] were 6620 nM and 1540 nM, respectively.

For `O=C(Nc1cc(C(F)(F)CN2CCOCC2)ccc1N1CCCCC1)c1csc(-c2cn[nH]c2)n1` [I-35, N-(5-(1,1-difluoro-2-morpholinoethyl)-2-(piperidin-1-yl)phenyl)-2-(1H-pyrazol-4-yl)thiazole-4-carboxamide], the values for the EC50 in test [1] and in test [2] were 2600 nM and 1080 nM, respectively.

Consider `O=C(Nc1ccc(N2CCOCC2)cc1N1CCCCC1)c1cccc(-c2cn[nH]c2)n1` [I-36, N-(4-morpholino-2-(piperidin-1-yl)phenyl)-6-(1H-pyrazol-4-yl)picolinamide], for which the EC50 in test [1] is 1300 nM; in test [2], 2720 nM.

Consider `O=C(Nc1ccc(N2CCOCC2)cc1N1CCCCC1)c1ccc(-c2cn[nH]c2)o1` [I-37, N-(4-morpholino-2-(piperidin-1-yl)phenyl)-5-(1H-pyrazol-4-yl)furan-2-carboxamide], for which the EC50 in test [1] is 153 nM; in test [2] it was 262 nM.

With `O=C(Nc1ccc(N2CCOCC2)cc1N1CCCCC1)c1csc(-c2cn[nH]c2)n1` [I-38, N-(4-morpholino-2-(piperidin-1-yl)phenyl)-2-(1H-pyrazol-4-yl)thiazole-4-carboxamide], the concentration for a half-maximal effect (EC50) in test [1] amounted to 3980 nM; in test [2] it was 31000 nM.

Turning to `COc1ccc(N2CCOCC2)cc1NC(=O)c1cccc(-c2cn[nH]c2)n1` [I-39, N-(2-methoxy-5-morpholinophenyl)-6-(1H-pyrazol-4-yl)picolinamide], the EC50 in test [1] worked out at 3230 nM; in test [2] it was 6590 nM.

For the molecule `COc1ccc(N2CCOCC2)cc1NC(=O)c1csc(-c2cn[nH]c2)n1` [I-41, N-(2-methoxy-5-morpholinophenyl)-2-(1H-pyrazol-4-yl)thiazole-4-carboxamide], the EC50 is 9220 nM in test [1] and 3920 nM in test [2].

`O=C(Nc1cnc(N2CCOCC2)cc1N1CCCCC1)c1cccc(-c2cn[nH]c2)n1` [I-42, N-(6-morpholino-4-(piperidin-1-yl)pyridin-3-yl)-6-(1H-pyrazol-4-yl)picolinamide]: the EC50 in test [1] stood at 3080 nM; in test [2] it was 1040 nM.

For `O=C(Nc1cnc(N2CCOCC2)cc1N1CCCCC1)c1ccc(-c2cn[nH]c2)o1` [I-43, N-(6-morpholino-4-(piperidin-1-yl)pyridin-3-yl)-5-(1H-pyrazol-4-yl)furan-2-carboxamide], the EC50 in test [1] came to 3450 nM; in test [2], 2690 nM.

Take `O=C(Nc1cnc(N2CCOCC2)cc1N1CCCCC1)c1csc(-c2cn[nH]c2)n1` [I-44, N-(6-morpholino-4-(piperidin-1-yl)pyridin-3-yl)-2-(1H-pyrazol-4-yl)thiazole-4-carboxamide]: the figures for the EC50 in test [1] and in test [2] were 229 nM and 222 nM, respectively.

Consider `O=C(Nc1ccc(C(=O)N2CCOCC2)cc1N1CCCCC1)c1cccc(-c2cn[nH]c2)n1` [I-45, N-(4-(morpholine-4-carbonyl)-2-(piperidin-1-yl)phenyl)-6-(1H-pyrazol-4-yl)picolinamide], for which the EC50 was found to be 84 nM in test [1] and 117 nM in test [2].

In the case of `O=C(Nc1ccc(C(=O)N2CCOCC2)cc1N1CCCCC1)c1ccc(-c2cn[nH]c2)o1` [I-46, N-(4-(morpholine-4-carbonyl)-2-(piperidin-1-yl)phenyl)-5-(1H-pyrazol-4-yl)furan-2-carboxamide], the EC50 in test [1] was found to be 2660 nM; in test [2] it was 1360 nM.

In the case of `O=C(Nc1ccc(C(=O)N2CCOCC2)cc1N1CCCCC1)c1csc(-c2cn[nH]c2)n1` [I-47, N-(4-(morpholine-4-carbonyl)-2-(piperidin-1-yl)phenyl)-2-(1H-pyrazol-4-yl)thiazole-4-carboxamide], the EC50 amounted to 2460 nM in test [1] and 164 nM in test [2].

Regarding `O=C(Nc1ccc(CN2CCOCC2)cc1N1CCCCC1)c1cccc(-c2cn[nH]c2)n1` [I-48, N-(4-(morpholinomethyl)-2-(piperidin-1-yl)phenyl)-6-(1H-pyrazol-4-yl)picolinamide], the EC50 in test [1] was found to be 468 nM; in test [2] it was 177 nM.

For the molecule `O=C(Nc1ccc(CN2CCOCC2)cc1N1CCCCC1)c1ccc(-c2cn[nH]c2)o1` [I-49, N-(4-(morpholinomethyl)-2-(piperidin-1-yl)phenyl)-5-(1H-pyrazol-4-yl)furan-2-carboxamide], the EC50 in test [1] turned out to be 2960 nM; in test [2], 1270 nM.
